# Experimental data reported in ChEMBL document CHEMBL2321873, “1-(4-Phenylpiperazin-1-yl)-2-(1H-pyrazol-1-yl)ethanones as novel CCR1 antagonists” (Bioorg Med Chem Lett, 2013).
# The source made the active and inactive calls. No cut-off for these calls is given here.
# Experiments:
# [1] = target: T1, Atypical chemokine receptor 1 (Homo sapiens) (UniProt Q16570); assay: Antagonist activity at Duffy (unknown origin) assessed as inhibition of chemotaxis at 10 uM
# T1 sequence (whole entry): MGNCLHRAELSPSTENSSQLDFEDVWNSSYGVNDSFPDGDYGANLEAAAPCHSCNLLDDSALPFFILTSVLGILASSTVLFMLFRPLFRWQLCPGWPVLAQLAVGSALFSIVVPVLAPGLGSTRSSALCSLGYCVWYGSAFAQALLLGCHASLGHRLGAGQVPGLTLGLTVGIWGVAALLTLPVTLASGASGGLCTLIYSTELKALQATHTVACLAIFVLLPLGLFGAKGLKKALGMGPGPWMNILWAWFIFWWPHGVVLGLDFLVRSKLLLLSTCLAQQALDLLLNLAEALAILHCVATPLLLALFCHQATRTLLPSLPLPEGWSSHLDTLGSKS
# [2] = target: T2, CX3C chemokine receptor 1 (Homo sapiens) (UniProt P49238); assay: Antagonist activity at CX3CR1 (unknown origin) assessed as inhibition of chemotaxis at 10 uM
# T2 sequence (whole entry): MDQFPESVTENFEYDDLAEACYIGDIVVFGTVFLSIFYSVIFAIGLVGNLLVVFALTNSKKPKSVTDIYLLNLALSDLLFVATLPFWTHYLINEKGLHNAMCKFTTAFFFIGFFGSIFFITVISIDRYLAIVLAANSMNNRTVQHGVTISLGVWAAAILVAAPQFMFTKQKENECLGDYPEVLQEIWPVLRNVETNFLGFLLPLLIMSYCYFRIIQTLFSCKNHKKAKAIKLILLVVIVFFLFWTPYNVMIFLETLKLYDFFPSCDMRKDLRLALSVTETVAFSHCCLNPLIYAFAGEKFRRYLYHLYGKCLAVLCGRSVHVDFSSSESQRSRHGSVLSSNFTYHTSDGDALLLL
# [3] = target: T3, C-X-C chemokine receptor type 3 (Homo sapiens) (UniProt P49682); assay: Antagonist activity at CXCR3 (unknown origin) assessed as inhibition of chemotaxis at 10 uM
# T3 sequence (whole entry): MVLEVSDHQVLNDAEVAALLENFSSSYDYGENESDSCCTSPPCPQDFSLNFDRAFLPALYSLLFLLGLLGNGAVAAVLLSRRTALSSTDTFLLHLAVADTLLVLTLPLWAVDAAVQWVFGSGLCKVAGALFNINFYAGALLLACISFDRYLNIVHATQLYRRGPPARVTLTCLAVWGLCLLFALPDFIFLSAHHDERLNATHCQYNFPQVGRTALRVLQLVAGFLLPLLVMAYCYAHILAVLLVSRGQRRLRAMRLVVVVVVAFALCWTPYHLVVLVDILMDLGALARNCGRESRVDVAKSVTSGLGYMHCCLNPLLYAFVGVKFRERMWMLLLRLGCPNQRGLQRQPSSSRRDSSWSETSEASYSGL
# [4] = target: T2, CX3C chemokine receptor 1 (Homo sapiens); assay: Antagonist activity at CX3CR1 (unknown origin) assessed as inhibition of calcium flux at 10 uM; assay type: functional
# [5] = target: T1, Atypical chemokine receptor 1 (Homo sapiens); assay: Binding affinity to Duffy (unknown origin) at 10 uM by radioligand displacement assay
# [6] = target: C-X-C chemokine receptor type 4 (Homo sapiens) (UniProt P61073); assay: Binding affinity to CXCR4 (unknown origin) at 10 uM by radioligand displacement assay
# [7] = target: T4, C-C chemokine receptor type 9 (Homo sapiens) (UniProt P51686); assay: Binding affinity to CCR9 (unknown origin) at 10 uM by radioligand displacement assay
# T4 sequence (whole entry): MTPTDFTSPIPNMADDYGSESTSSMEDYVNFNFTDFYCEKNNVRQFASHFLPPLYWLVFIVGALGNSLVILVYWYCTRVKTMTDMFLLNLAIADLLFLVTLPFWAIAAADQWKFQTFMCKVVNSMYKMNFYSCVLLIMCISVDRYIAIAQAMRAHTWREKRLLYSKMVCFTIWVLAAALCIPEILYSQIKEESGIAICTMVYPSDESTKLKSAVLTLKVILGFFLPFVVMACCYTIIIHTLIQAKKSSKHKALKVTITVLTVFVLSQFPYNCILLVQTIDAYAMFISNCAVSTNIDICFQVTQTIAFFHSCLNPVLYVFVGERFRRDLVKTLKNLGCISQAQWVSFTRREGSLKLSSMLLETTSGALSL
# [8] = target: C-C chemokine receptor type 8 (Homo sapiens) (UniProt P51685); assay: Binding affinity to CCR8 (unknown origin) at 10 uM by radioligand displacement assay
# Cytochrome P450 1A2 = Cytochrome P450 1A2 (Homo sapiens, UniProt P05177); assay: Competitive inhibition of CYP1A2 (unknown origin); assay type: ADME
# [9] = Plasma clearance in Beagle dog at 1 mg/kg, iv; assay type: ADME, organism-based, Canis lupus familiaris; parameters: dose 1 mg/kg, route intravenous
# C-X-C chemokine receptor type 4 (Homo sapiens), sequence (P61073 whole entry): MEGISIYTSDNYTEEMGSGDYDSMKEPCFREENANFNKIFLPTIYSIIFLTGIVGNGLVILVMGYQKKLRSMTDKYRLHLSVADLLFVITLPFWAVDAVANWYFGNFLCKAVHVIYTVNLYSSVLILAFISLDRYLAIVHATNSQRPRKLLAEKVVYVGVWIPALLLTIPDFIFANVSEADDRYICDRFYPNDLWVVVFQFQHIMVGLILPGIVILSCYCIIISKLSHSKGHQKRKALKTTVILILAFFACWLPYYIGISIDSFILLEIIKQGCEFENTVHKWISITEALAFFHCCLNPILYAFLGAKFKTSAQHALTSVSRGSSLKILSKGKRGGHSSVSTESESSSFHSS
# Cytochrome P450 1A2, sequence (P05177 whole entry): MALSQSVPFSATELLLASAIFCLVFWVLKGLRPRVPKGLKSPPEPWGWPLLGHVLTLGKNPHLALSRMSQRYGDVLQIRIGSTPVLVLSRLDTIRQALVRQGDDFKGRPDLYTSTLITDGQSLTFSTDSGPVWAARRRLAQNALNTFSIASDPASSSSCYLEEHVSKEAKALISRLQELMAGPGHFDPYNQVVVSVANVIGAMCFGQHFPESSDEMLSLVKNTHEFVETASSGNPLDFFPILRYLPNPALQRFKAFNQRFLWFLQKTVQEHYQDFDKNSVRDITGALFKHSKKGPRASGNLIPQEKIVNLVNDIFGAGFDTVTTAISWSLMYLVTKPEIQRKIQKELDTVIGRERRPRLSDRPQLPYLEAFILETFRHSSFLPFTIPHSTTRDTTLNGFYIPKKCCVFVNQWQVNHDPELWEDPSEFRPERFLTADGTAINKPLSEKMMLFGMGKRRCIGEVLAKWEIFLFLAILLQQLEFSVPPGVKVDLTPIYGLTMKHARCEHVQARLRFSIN
# C-C chemokine receptor type 8 (Homo sapiens), sequence (P51685 whole entry): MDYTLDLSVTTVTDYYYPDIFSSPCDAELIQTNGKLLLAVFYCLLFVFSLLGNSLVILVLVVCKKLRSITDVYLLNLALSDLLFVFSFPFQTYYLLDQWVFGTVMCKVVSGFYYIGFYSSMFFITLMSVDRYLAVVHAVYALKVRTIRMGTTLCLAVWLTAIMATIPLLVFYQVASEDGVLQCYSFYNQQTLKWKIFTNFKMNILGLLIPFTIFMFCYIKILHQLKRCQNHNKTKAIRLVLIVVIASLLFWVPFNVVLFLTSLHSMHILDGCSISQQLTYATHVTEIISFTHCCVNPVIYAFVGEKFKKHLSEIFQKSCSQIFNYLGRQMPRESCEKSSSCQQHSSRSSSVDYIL
smiles,measurement,setting,value
COc1cc(N2CCN(C(=O)Cn3nc(C(F)(F)F)c(Cl)c3C)CC2)ccc1Cl,inhibition,[1],inactive
same,inhibition,[2],inactive
same,inhibition,[3],inactive
same,inhibition,[4],inactive
same,Activity,[5],inactive
same,Activity,[6],inactive
same,Activity,[7],inactive
same,Activity,[8],inactive
same,IC50,Cytochrome P450 1A2,> 10 µM
same,clearance,[9],9.6 mL/min/kg
